{"source": "patent US20070184549A1", "about": "“Method of inducing fenestrae” (priority 2004, published 2007)", "key": {"bEND5 cells": {"tested_on": "bEND5 cells", "test": "Fenestrae induction in bEND5 cells, quantified by stereology on SEM or wholemount TEM images", "details": "for induction of fenestrae compared to the untreated control: cytochalasin B (10 nM) or Latrunculin A (2.5 nM) alone; for induction of fenestrae compared to the untreated control / maximum number of fenestrae: SEM; for maximum number of fenestrae: cytochalasin B at 2 hours, latrunculin A after 3 hours; for time of treatment at maximum number of fenestrae: single agent, SEM time-course; for fenestrae formation: 2.5 μM Latrunculin A, 3 hours, wholemount TEM", "from_the_text": "Images were printed, and sieve plates were marked (solid line). A grid (20 mm×20 mm) was overlaid over each image and the number of grid points falling within the areas delineated or on any cellular structure were counted. Fenestrae abundance was estimated based on the following calculation: Plasma membrane coverage (or fraction of the plasma membrane occupied by sieve plates)=grid points falling on sieve plates/grid points falling on any cell area. To express abundance in terms of the number of fenestrae per area of plasma membrane, the density of fenestrae within sieve plates was calculated and multiplied by the frequency of sieve plates as follows: number of fenestrae per square μm=density of fenestrae×plasma membrane coverage.\nA quantitative assessment of fenestrae numbers was achieved by applying Stereology to SEM or wholemount TEM images (FIG. 3). Quantitative assessment comprised overlaying a lattice on top of an image and counting points falling on fenestrated and on non-fenestrated areas of the plasma membrane. Amounts of fenestrae were routinely expressed as fractions of plasma membrane area that was fenestrated (point counts falling on fenestrae divided by point counts falling on any plasma membrane area). To compare these numbers with measurements in previous in vivo or in vitro studies, the density of individual fenestrae within sieve plates was estimated, which when multiplied by the fraction of plasma membrane coverage equaled the number of fenestrae per μm^2 of plasma membrane.\nCoverslips and dishes were coated with 1% gelatin (Sigma) solution in PBS for 30 minutes at room temperature. Endothelial cells were seeded overnight at a density equivalent to 1.5×10^6 cells per 100 mm dish. Cultures were induced with Cytochalasin B (Sigma) at 10 μM for 2 hours, with Latrunculin A (Molecular Probes) at 2.5 μM for 3 hours, or with a combination of recombinant mouse 75 ng/ml VEGF (R&D systems) for 6-72 hours and 10 μM Cytochalasin B for 2 hours. Cells were processed for biochemistry or morphology immediately after the end of the induction."}, "Py4.1 cells": {"tested_on": "Py4.1 cells", "test": "Fenestrae induction in Py4.1 cells, wholemount TEM", "format": "cell-based, mouse", "details": "for fenestrae formation: 2.5 μM Latrunculin A, 3 hours, wholemount TEM", "method": "(§1) FIG. 9 is a graph regarding fenestrae induction in different endothelial cell types. The potential of different endothelial cell lines to form fenestrae under the optimal parameters of induction was assessed using wholemount TEM. bEND5, Py4.1, SVEC, and HUVEC cells were treated for 3 hours with vehicle (V) or 2.5 μM Latrunculin A (Lat), and the number of fenestrae was estimated as a fraction of the plasma membrane area occupied by sieve plates. Data points represent the average of two experiments, with 36 images captured per sample in each experiment. Error bars represent standard deviation between the two experiments.\nA panel of endothelial cell subtypes was assessed for their fenestrae-forming potentials. Three mouse endothelial lines (bEND5, Py4.1, SVEC) and one human primary endothelial line (HUVEC) were cultured on gelatin-coated grids, treated with latrunculin A for 3 hours, and examined by wholemount TEM (FIG. 8). bEND5 and Py4.1 cells are brain endothelomas and ear/tail endotheliomas respectively, both originating from hemangiomas of Polyoma virus—infected mice. SVECs are lymph node endothelial cells infected with SV40 virus. HUVECs were chosen because of their widespread use and primary cell nature. […] The response of bEND5 and Py4.1 cells differed both in magnitude and in relation to the respective untreated controls. bEND5 cells harbored greater numbers of fenestrae overall, but contained some background fenestrae in the un-induced state."}, "[1]": {"tested_on": "actin microfilaments of bEND5 cells", "test": "Actin microfilament staining with Alexa546-conjugated phalloidin, time-course in bEND5 cells", "format": "cell-based, mouse", "details": "for earliest dramatic changes in the organization of actin, time of treatment / time until which cortical actin persisted / was dismantled / time within which stress fibers were reduced: 10 μM Cytochalasin B or 2.5 μM Latrunculin A", "method": "Stress fibers were reduced within the first 20 minutes, whereas cortical actin persisted until about 60 minutes of treatment. At 120 minutes, individual actin bundles were spread around the cytoplasm. (Bar=8 μm)\nFIG. 11 show images of bEND5 cells that were treated with 2.5 μM Latrunculin A for different periods of time, and actin microfilaments were stained with Alexa546-conjugated phalloidin. Stress fibers were reduced within the first 20 minutes, while complete disruption occurs at 60-120 minutes. Individual actin foci, small filaments, and actin-rich filopodia were present after 180 minutes of treatment. (Bar=8 μm)\n(§2) Microfilaments were disrupted in all cell types upon treatment. (Bar=8 μm)\nIn parallel to the SEM analysis, bEND5 cells subjected to cytochalasin B and latrunculin A time-courses were stained for the presence of actin microfilaments using phalloidin (FIGS. 10 and 11). Untreated cells contained an extensive network of stress fibers spanning their cytoplasm. Dramatic changes in the organization of actin were however observed as early as after 10 minutes of treatment with either agent. […] At 120 minutes, the disassembled actin was concentrated in aggregates throughout the cytoplasm, while large areas remained actin-deficient. In cells treated with latrunculin A (FIG. 11) the disruption of stress fibers was faster, and the cortical cytoskeleton was dismantled within the first 20 minutes. Overall cells had more and larger actin-depleted areas, and the remainder of actin appeared irregularly arranged in short filaments around the cytoplasm or in structures resembling filopodia."}, "actin filaments": {"molecular_target": "actin filaments", "details": "barbed, fast growing end of actin filaments; cited from earlier work"}, "SVEC cells": {"tested_on": "SVEC cells", "test": "Fenestrae induction in SVEC cells, wholemount TEM", "format": "cell-based, mouse", "details": "2.5 μM Latrunculin A, 3 hours", "method": "as §1\n(§3) A panel of endothelial cell subtypes was assessed for their fenestrae-forming potentials. Three mouse endothelial lines (bEND5, Py4.1, SVEC) and one human primary endothelial line (HUVEC) were cultured on gelatin-coated grids, treated with latrunculin A for 3 hours, and examined by wholemount TEM (FIG. 8). bEND5 and Py4.1 cells are brain endothelomas and ear/tail endotheliomas respectively, both originating from hemangiomas of Polyoma virus—infected mice. SVECs are lymph node endothelial cells infected with SV40 virus. HUVECs were chosen because of their widespread use and primary cell nature. […]"}, "HUVEC cells": {"tested_on": "HUVEC cells", "test": "Fenestrae induction in HUVEC cells, wholemount TEM", "format": "cell-based, human", "details": "2.5 μM Latrunculin A, 3 hours", "method": "as §1, §3"}, "[2]": {"tested_on": "actin cytoskeleton of Py4.1 cells", "test": "Actin cytoskeleton staining with phalloidin in Py4.1 cells", "format": "cell-based, mouse", "details": "2.5 μM Latrunculin A, 3 hours", "from_the_text": "as §2\n(§4) The actin cytoskeleton of all four cell types was stained with phalloidin to study the differential induction of endothelial cell subtypes by latrunculin A (FIG. 12). […] Observation of bEND5 and Py4.1 cells highlighted a difference in their actin cytoskeleton in the steady state (FIGS. 12A and 12C). Py4.1 cells had greater amounts of cortical actin. This could account for their decreased susceptibility to fenestrae formation compared to bEND5 cells, a discrepancy particularly apparent during induction with cytochalasin B."}, "[3]": {"tested_on": "actin cytoskeleton of SVEC cells", "test": "Actin cytoskeleton staining with phalloidin in SVEC cells", "format": "cell-based, mouse", "details": "2.5 μM Latrunculin A, 3 hours", "from_the_text": "as §2, §4"}, "[4]": {"tested_on": "actin cytoskeleton of HUVEC cells", "test": "Actin cytoskeleton staining with phalloidin in HUVEC cells", "format": "cell-based, human", "details": "2.5 μM Latrunculin A, 3 hours", "from_the_text": "as §2, §4"}, "actin monomers": {"molecular_target": "actin monomers", "details": "1:1 complexes with actin monomers; cited from earlier work"}, "[5]": {"tested_on": "primary liver endothelial cells", "details": "cited from earlier work"}, "[6]": {"tested_on": "normally non-fenestrated anatomical sites", "details": "topical application or intradermal injection; cited from earlier work"}}, "data": [{"compound": "C=C1[C@@H](C)[C@H]2[C@H](Cc3ccccc3)NC(=O)[C@]23OC(=O)/C=C/[C@H](O)CCC[C@@H](C)C/C=C/[C@H]3[C@@H]1O", "note": "[cytochalasin B]", "values": [{"measurement": "induction of fenestrae compared to the untreated control", "setting": "bEND5 cells", "result": "~100", "unit": "fold"}, {"measurement": "maximum number of fenestrae", "setting": "bEND5 cells", "result": 3.5, "unit": "fenestrae per μm^2"}, {"measurement": "time of treatment at maximum number of fenestrae", "setting": "bEND5 cells", "result": 2, "unit": "h"}, {"measurement": "change in the number of fenestrae at 3 hours of treatment", "setting": "bEND5 cells; versus the maximum at 2 hours", "result": "slight decrease"}, {"measurement": "response of Py4.1 cells to cytochalasin B (fenestrae formation)", "setting": "Py4.1 cells", "result": "responsive"}, {"measurement": "earliest dramatic changes in the organization of actin, time of treatment", "setting": "[1]", "result": 10, "unit": "min"}, {"measurement": "time until which cortical actin persisted / was dismantled", "setting": "[1]", "result": "about 60 minutes"}, {"measurement": "time within which stress fibers were reduced", "setting": "[1]", "result": "≤ 20", "unit": "min"}, {"measurement": "Kd", "setting": "actin filaments", "result": "10 to 100", "unit": "nM"}]}, {"compound": "C/C1=C/C(=O)O[C@@H]2C[C@@H](CC[C@H](C)/C=C\\C=C\\CC1)O[C@@](O)([C@@H]1CSC(=O)N1)C2", "note": "[latrunculin A]", "values": [{"measurement": "fenestrae formation", "setting": "bEND5 cells", "result": "susceptible to fenestrae formation"}, {"measurement": "fenestrae formation", "setting": "bEND5 cells; listed as Latrunculin A", "result": "Abundant fenestrae"}, {"measurement": "induction of fenestrae compared to the untreated control", "setting": "bEND5 cells", "result": "~100", "unit": "fold"}, {"measurement": "maximum number of fenestrae", "setting": "bEND5 cells", "result": "up to 5.3 fenestrae per μm^2"}, {"measurement": "maximum number of fenestrae", "setting": "bEND5 cells; listed as Latrunculin A", "result": 5.3, "unit": "fenestrae per μm^2"}, {"measurement": "potency in inducing fenestrae, comparison of the two agents", "setting": "bEND5 cells; even when used at lower concentrations", "result": "more potent in inducing fenestrae than cytochalasin B"}, {"measurement": "time of treatment at maximum number of fenestrae", "setting": "bEND5 cells", "result": 3, "unit": "h"}, {"measurement": "viability of the cells", "setting": "bEND5 cells; treatments extended over 3 hours", "result": "reduced considerably"}, {"measurement": "fenestrae formation", "setting": "Py4.1 cells", "result": "susceptible to fenestrae formation"}, {"measurement": "fenestrae formation", "setting": "Py4.1 cells; listed as Latrunculin A", "result": "Abundant fenestrae"}, {"measurement": "fenestrae formation", "setting": "SVEC cells", "result": "no indication of fenestrae"}, {"measurement": "fenestrae formation", "setting": "SVEC cells; listed as Latrunculin A", "result": "No fenestrae"}, {"measurement": "fenestrae formation", "setting": "HUVEC cells", "result": "only very few"}, {"measurement": "fenestrae formation", "setting": "HUVEC cells; listed as Latrunculin A", "result": "rare fenestrae"}, {"measurement": "time of complete disruption of actin microfilaments", "setting": "[1]; 2.5 μM Latrunculin A", "result": "60 to 120", "unit": "min"}, {"measurement": "state of the actin cytoskeleton after treatment", "setting": "[1]; 2.5 μM Latrunculin A, 3 hours", "result": "completely disrupted"}, {"measurement": "earliest dramatic changes in the organization of actin, time of treatment", "setting": "[1]", "result": 10, "unit": "min"}, {"measurement": "time until which cortical actin persisted / was dismantled", "setting": "[1]", "result": "≤ 20", "unit": "min"}, {"measurement": "time within which stress fibers were reduced", "setting": "[1]", "result": "≤ 20", "unit": "min"}, {"measurement": "state of the actin cytoskeleton after treatment", "setting": "[2]", "result": "completely disrupted"}, {"measurement": "state of the actin cytoskeleton after treatment", "setting": "[3]", "result": "completely disrupted"}, {"measurement": "state of the actin cytoskeleton after treatment", "setting": "[4]", "result": "completely disrupted"}, {"measurement": "Kd", "setting": "actin monomers", "result": "~100", "unit": "nM"}]}, {"compound": "CO[C@H]1C[C@H](CC[C@H](C)[C@H](O)[C@H](C)[C@H]2OC(=O)/C=C/C(C)=C/C[C@H](O)C[C@@H]3C=CC[C@@H](C[C@H](OC)[C@@H](C)[C@@H](O)C[C@@H](O)[C@H](C)[C@@H]([C@@H](C)[C@@H](O)[C@@H](C)CC[C@H]4C[C@H](OC)C[C@H](C)O4)OC(=O)/C=C/C(C)=C/C[C@H](O)C[C@@H]4C=CC[C@@H](C[C@H](OC)[C@@H](C)[C@@H](O)C[C@@H](O)[C@@H]2C)O4)O3)O[C@@H](C)C1", "note": "[swinholide A]", "values": [{"measurement": "induction of fenestrae over untreated control", "setting": "[5]", "result": "less than 3 fold"}, {"measurement": "fenestrae levels", "setting": "[5]; untreated control contained over 3 fenestrae per μm^2", "result": "up to 9.1 per μm^2"}]}, {"compound": "VEGF", "values": [{"measurement": "fenestrae induction, cells treated only with VEGF", "setting": "bEND5 cells; Cytochalasin B omitted from the induction cocktail", "result": "minimal induction over background"}, {"measurement": "time within which fenestrations are induced", "setting": "[6]", "result": "≤ 10", "unit": "min"}]}]}
